The values that follow come from US9487489B2, “Halogen-substituted pyrazole derivatives as pest-control agents” (BAYER CROPSCIENCE AKTIENGESELLSCHAFT, priority 2013, dated 2016).

For assay [1], the system named is Tick nymphs (Amblyomma hebraeum). The experiment in a line: Amblyomma hebraeum test (AMBYHE), tick nymphs immersed. It is filed as in vivo. The note with it: application rate 100 ppm; immersed one minute; after 42 days. The protocol: A. Amblyomma hebaraeum Test (AMBYHE)
Solvent: dimethyl sulphoxide
To produce a suitable preparation of active compound, 10 mg of active compound are mixed with 0.5 ml of dimethyl sulfoxide, and the concentrate is diluted with water to the desired concentration.
Tick nymphs (Amblyomma hebraeum) are placed into perforated plastic beakers and immersed in the desired concentration for one minute. The ticks are transferred on filter paper into a Petri dish and stored in a climate-controlled cabinet.
After 42 days, the kill in % is determined. 100% means that all of the ticks have been killed; 0% means that none of the ticks have been killed.

For assay [2], the system named is cattle ticks (Boophilus microplus) Parkhurst strain, SP-resistant. The experiment in a line: Boophilus microplus dip test (BOOPMI Dip). Format: in vivo. Conditions: application rate 100 ppm, assessed after 7 days. In outline: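 Adult engorged female SP-resistant Parkhurst ticks (8–10) were fully immersed in compound diluted in water from a DMSO solution, then kept in a climate-controlled room. After 7 days, fertile egg-laying was scored, with larval hatching checked at about 42 days; 100% efficacy means no fertile eggs.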

The subject of assay [3] is engorged adult female cattle ticks (Boophilus microplus). The experiment in a line: Boophilus microplus injection test (BOOPMI Inj). It is filed as in vivo. The note with it: application rate 20 μg/animal; injection into abdomen; assessed after 7 days. In short, it runs like this: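 Efficacy is read at 7 days as fertile egg laying (100% = no fertile eggs laid; 0% = all eggs fertile), with eggs of unclear fertility stored until larvae hatch at about 42 days. Five engorged adult females per dose each receive an abdominal injection of 1 μl compound dissolved in DMSO.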

Assay [4] concerns adult cat fleas (Ctenocephalides felis). Description: Ctenocephalides felis oral test (CTECFE). Format: in vivo. The note with it: application rate 100 ppm in citrated cattle blood; after 2 days. In outline: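 Mortality read at 2 days as percent of fleas killed. Compound predissolved in DMSO, diluted into citrated cattle blood and offered to roughly 20 unfed adult C. felis via parafilm membrane feeder.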

Assay [5] concerns L1 larvae of the Australian sheep blowfly (Lucilia cuprina). The experiment in a line: Lucilia cuprina test (LUCICU). Conditions: application rate 100 ppm; after 2 days. Format: in vivo. In short, it runs like this: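 Percent mortality read at 2 days; 100% = all larvae killed, 0% = none. Test compound, predissolved in DMSO and water-diluted to the wanted level, was mixed into minced horsemeat holding roughly 20 first-instar larvae.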

The subject of assay [6] is adult houseflies (Musca domestica). Description: Musca domestica test (MUSCDO). It is filed as in vivo. Conditions: application rate 100 ppm; after 2 days. In outline:
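Groups of 10 adult Musca domestica exposed to a sugar-soaked sponge treated with the water-diluted DMSO preparation of compound at the chosen concentration. Percent kill read at day 2, where 0% means no flies killed and 100% all killed.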

Assay [7] deals with green peach aphid (Myzus persicae). Description: Myzus persicae spray test (MYZUPE). Format: in vivo. Conditions: application rate 500 g/ha; Chinese cabbage leaf discs; after 6 days. In short, it runs like this: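 Chinese cabbage leaf discs infested with all aphid stages sprayed with compound in acetone/DMF with alkylaryl polyglycol ether emulsifier in water. Efficacy (% aphids killed; 100% all dead, 0% none) scored after 6 days.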

Assay [8] concerns larvae of the mustard beetle (Phaedon cochleariae). Description: Phaedon cochleariae spray test (PHAECO). Format: in vivo. Conditions: Chinese cabbage leaf discs, after 7 days. In short, it runs like this:
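Kill of mustard beetle larvae is read as % mortality 7 days after spraying. Spray liquid: active compound in acetone plus dimethylformamide, brought up with water holding 1000 ppm alkylaryl polyglycol ether emulsifier and diluted further in emulsifier-water.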

In assay [9] the test system is caterpillars of the armyworm (Spodoptera frugiperda). The experiment in a line: Spodoptera frugiperda spray test (SPODFR). Format: in vivo. The note with it: maize leaf discs, after 7 days. In outline: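 Percent kill read at day 7 on caterpillar-infested maize leaf discs. Discs were first sprayed with aqueous emulsifier-containing (1000 ppm) preparations made from acetone/dimethylformamide solutions, and dried. Scale: 0% none dead, 100% all dead.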

Assay [10] concerns greenhouse red spider mite (Tetranychus urticae). Description: Tetranychus urticae spray test, OP-resistant (TETRUR). Format: in vivo. Conditions: bean leaf discs, after 6 days. In outline:
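Percent kill, scored 6 days post-spray (0% = none dead, 100% = all dead), on Phaseolus vulgaris leaf discs infested with every life stage of the OP-resistant spider mite. Compound dissolved in acetone plus DMF, diluted to test concentration with emulsifier-containing water (1000 ppm).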

The subject of assay [11] is adult cat fleas (Ctenocephalides felis). Description: Ctenocephalides felis in vitro contact test with adult cat fleas (T1). Conditions: after 48 h. In short, it runs like this: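 Adult cat fleas (Ctenocephalides felis), 5-10 per tube, were exposed to the inner surface of 25 ml test tubes coated with compound in acetone. Tubes were incubated lying flat under ambient conditions. Efficacy was then read by standing tubes upright and knocking the fleas to the floor. Fleas that stayed motionless or moved uncoordinatedly counted as dead or moribund, where 100% means all fleas dead or moribund and 0% means none harmed.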

Assay [12] concerns adult dog ticks (Rhipicephalus sanguineus). The experiment in a line: Rhipicephalus sanguineus in vitro contact test with adult brown dog ticks (T2). Conditions: after 48 h. In short, it runs like this:
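Acetone solutions coated onto test tube walls and floor, giving 5 μg/cm^2 at 900 ppm. Five to ten adult ticks held per tube in the dark at room temperature for 48 h, then heated at 45-50° C for up to 5 min; efficacy is the percentage of dead or moribund ticks unable to climb away.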

For assay [13], the system named is bont tick nymphs (Amblyomma hebraeum). The note with it: after 48 h.
Assay [14] has as its system adult castor bean ticks (Ixodes ricinus). The experiment in a line: Ixodes ricinus in vitro contact test with adult castor bean ticks (T3). The note with it: application rate 5 μg/cm^2; after 48 h. The procedure:
T3. Ixodes ricinus-in vitro Contact Tests with Adult Castor Bean Ticks
For the coating of the test tubes, initially 9 mg of active compound are dissolved in 1 ml of acetone p.a. and then diluted with acetone p.a. to the desired concentration. By turning and rocking on an orbital shaker (2 h of rocking rotation at 30 rpm), 250 μl of the solution are distributed homogeneously on the internal walls and the floor of a 25 ml test tube. At 900 ppm active compound solution and 44.7 cm^2 internal surface, an area dose of 5 μg/cm^2 is achieved for homogeneous distribution.
After evaporation of the solvent, the tubes are populated with 5-10 adult castor bean ticks (Ixodes ricinus), sealed with a perforated plastic lid and incubated in a horizontal position in the dark at 22° C. and 90% humidity in a climate-controlled cabinet. After 48 h, the efficacy is determined. To this end, the ticks are knocked to the floor of the tube and incubated on a hotplate at 45-50° C. for at most 5 min. Ticks which remain motionless on the floor or move in an uncoordinated manner such that they are not able to deliberately avoid the heat by climbing upwards are considered to be dead or moribund.
An efficacy of 100% means that all ticks were dead or moribund. 0% efficacy means that none of the ticks had been damaged.

SMILES strings stand for the structures.

Consider `Cn1nc(C(F)(F)C(F)(F)F)c(C(F)(F)F)c1-n1cc(-c2cc(C(=O)NC3CC3)c(F)cc2Cl)cn1` [Ic-49], for which the “efficacy (kill in %)” value in [1], in assay [4], in assay [5] and in [6] was 100% in each case. Also, the “efficacy (laying of fertile eggs)” value in assay [2] and in assay [3] was 100% in each case. In addition, the efficacy in % stood at 90% in [7], 100% in assay [8] (application rate 500 g/ha), 100% in [9] (application rate 500 g/ha) and 90% in assay [10] (application rate 500 g/ha). For the same compound, the “efficacy (dead or moribund fleas)” value in [11] (application rate 1 μg/cm^2) and in assay [11] (application rate 5 μg/cm^2) was 100% in each case. Moreover, the “efficacy (dead or moribund ticks)” value in [12] (application rate 1 μg/cm^2), in assay [12] (application rate 5 μg/cm^2) and in [13] was 100% each time.

In the case of `Cn1nc(C(F)(F)C(F)(F)F)c(C(F)(F)F)c1-n1cc(-c2cc(Cl)c(Cl)c(C(=O)NC3(C#N)CC3)c2)cn1` [Ic-95], the “efficacy (kill in %)” value in [1], in assay [4], in assay [5] and in assay [6] was 100% in each case. In addition, the “efficacy (laying of fertile eggs)” value in assay [2] and in assay [3] was 100% in each case. In addition, the efficacy in % in [7] is on record as 90%; in assay [8] (application rate 500 g/ha), 100%; in assay [9] (application rate 500 g/ha), 100%; in assay [10] (application rate 500 g/ha), 100%. Further, the “efficacy (dead or moribund fleas)” value in [11] (application rate 1 μg/cm^2) and in assay [11] (application rate 5 μg/cm^2) was 100% throughout. Besides, the “efficacy (dead or moribund ticks)” value in assay [12] (application rate 1 μg/cm^2), in assay [12] (application rate 5 μg/cm^2) and in [13] was 100% in each case.

As for `Cc1ncc(-c2cnn(-c3c(C(F)(F)F)c(C(F)(F)C(F)(F)F)nn3C)c2)cc1C(=O)NC1(C#N)CC1` [Ic-85], the “efficacy (kill in %)” value in assay [1], in [4], in [5] and in assay [6] was 100% throughout. The “efficacy (laying of fertile eggs)” value in assay [2] and in assay [3] was 100% throughout. Further, the efficacy in % in assay [7], in [8] (application rate 500 g/ha), in assay [9] (application rate 500 g/ha) and in assay [10] (application rate 500 g/ha) was 100% each time. The “efficacy (dead or moribund fleas)” value in assay [11] (application rate 1 μg/cm^2) and in assay [11] (application rate 5 μg/cm^2) was 100% throughout. Further, the “efficacy (dead or moribund ticks)” value in assay [12] (application rate 1 μg/cm^2) and in assay [12] (application rate 5 μg/cm^2) was 100% each time.

As to `Cn1nc(C(F)(F)C(F)(F)F)c(C(F)(F)F)c1-n1cc(-c2cnc(Cl)c(C(=O)NC3(C#N)CC3)c2)cn1` [Ic-83], the “efficacy (kill in %)” value in [1], in assay [4], in assay [5] and in [6] was 100% throughout. Besides, the “efficacy (laying of fertile eggs)” value in [2] and in [3] was 100% in each case. The efficacy in % in assay [8] (application rate 100 g/ha), in assay [9] (application rate 100 g/ha) and in [10] (application rate 100 g/ha) was 100% in each case. Further, the “efficacy (dead or moribund fleas)” value in assay [11] (application rate 1 μg/cm^2) and in assay [11] (application rate 5 μg/cm^2) was 100% each time. Further, the “efficacy (dead or moribund ticks)” value in assay [12] (application rate 1 μg/cm^2), in [12] (application rate 5 μg/cm^2), in [14] and in assay [13] was 100% throughout.

Consider `Cc1cc(-c2cnn(-c3c(C(F)(F)F)c(C(F)(F)C(F)(F)F)nn3C)c2)cc(C(=O)NC2(C#N)CC2)c1Cl` [Ic-91], for which the “efficacy (kill in %)” value in [1], in assay [4], in assay [5] and in assay [6] was 100% throughout. Also, the “efficacy (laying of fertile eggs)” value in assay [2] and in assay [3] was 100% each time. Moreover, the efficacy in % in assay [7], in assay [8] (application rate 500 g/ha), in [9] (application rate 500 g/ha) and in assay [10] (application rate 500 g/ha) was 100% throughout. Besides, the “efficacy (dead or moribund fleas)” value in [11] (application rate 1 μg/cm^2) and in assay [11] (application rate 5 μg/cm^2) was 100% each time. Besides, the “efficacy (dead or moribund ticks)” value in assay [12] (application rate 5 μg/cm^2) was determined as 80%.

Consider `Cn1nc(C(F)(F)C(F)(F)F)c(C(F)(F)F)c1-n1cc(-c2cc(F)c(F)c(C(=O)NC3(C#N)CC3)c2)cn1` [Ic-47], for which the “efficacy (kill in %)” value in assay [1], in assay [4], in assay [5] and in assay [6] was 100% throughout. Also, the “efficacy (laying of fertile eggs)” value in [2] and in assay [3] was 100% in each case. In addition, the efficacy in % in [7], in assay [8] (application rate 500 g/ha) and in assay [9] (application rate 500 g/ha) was 100% throughout. Moreover, the “efficacy (dead or moribund fleas)” value in assay [11] (application rate 1 μg/cm^2) and in assay [11] (application rate 5 μg/cm^2) was 100% in each case. Moreover, the “efficacy (dead or moribund ticks)” value in assay [12] (application rate 1 μg/cm^2), in [12] (application rate 5 μg/cm^2), in assay [14] and in assay [13] was 100% throughout.
